{
  "source": "patent US9394544B2",
  "about": "“Ameliorating oxidative stress in neurodegenerative disease via Nox1 targeting” (University of Central Florida Research Foundation, Inc., priority 2013, dated 2016)",
  "test_system": "rat SN",
  "assay": "Western blot / dot blot / protein carbonyl immunoblot of SN lysates, PQ rat model",
  "format": "in vivo",
  "method": "The experiments were performed on rats, in accordance with the National Institutes for Health Guide for the Care and Use of Laboratory Animals. All procedures were approved by the local Animal Care and Use Committee. Male Wistar rats (8-10 weeks; Charles River) were maintained in a temperature/humidity-controlled environment under a 12 h light/dark cycle with ad libitum access to food and water. As depicted in FIG. 13A, each animal received four intraperitoneal injections, separated by 1 d, of either vehicle (saline) or PQ (10 mg/kg body weight; b.w.), according to a previously published dose (Manning-Bog et al., 2002; Harraz et al., 2008; Cristovao et al., 2009). All animals were weighed at day 1 and 12. In the studies using the paradigm depicted in FIG. 13A, 4 weeks before starting PQ intraperitoneal injection, animals were stereotaxically injected with various viral constructs at the right SN using the following coordinates: mediolateral, +2.0; anteroposterior, −5.3; dorsoventral, −6.8. Animals were organized into four groups: vector+vehicle: stereotaxically injected with adeno-associated virus (AAV) particles containing a green fluorescent protein (GFP) vector (vector) and then intraperitoneally injected with saline (vehicle) (n=10); vector+PQ: stereotaxically injected with vector and then intraperitoneally injected with PQ (n=10); shNox1+PQ: stereotaxically injected with AAV particles harboring Nox1 shRNA and then intraperitoneally injected with PQ (n=10); shNox1+vehicle: stereotaxically injected with Nox1 shRNA and then intraperitoneally injected with vehicle (n=8). AAV containing GFP vector was used as a negative control. Five days after the last PQ intraperitoneal injection, animals were killed. For Western blot analysis, brains were collected and total protein lysates from SN were prepared. For immunohistochemical analysis, animals were intracardially perfused before collecting the brains.\nFor Western blot, brain tissues were lysed on ice in radioimmunoprecipitation assay buffer containing 50 mMTris/HCl, pH 8.0, 150 mM NaCl, 2 mM sodium orthovanadate, 1% Nonidet-P40 (NP-40), 0.5% sodium deoxycholate, and 0.1% SDS, containing 1% of a protease inhibitor mixture (AEBSF, pepstatinA, E-64, bestatin, leupeptin, and aprotinin). The soluble fraction was obtained and equal amounts of cell lysate protein were loaded in each lane of a 12% SDS-PAGE or 4/10% to 20% polyacrylamide gel. After electrophoresis and transfer onto a polyvinylidene difluoride (PVDF) membrane, specific protein bands were detected using appropriate primary antibodies (rabbit anti-Nox1, rabbit anti-α-synuclein, mouse anti-Ubiquitin, mouse anti-tyrosine hydroxylase (TH), and mouse anti-β-actin) and secondary antibodies conjugated to alkaline phosphatase or […] peroxidase (anti-rabbit or anti-mouse) followed by Enhanced Chemifluorescence (ECF) detection or Enhanced Chemiluminescence (ECL).\nFor dot blot, brain tissues were homogenized in a buffer containing 0.32 M sucrose, 1 mM NaHCO3, 1 mM MgCl2, 0.5 mM CaCl2, and 1% of a protease inhibitor mixture (AEBSF, pepstatinA, E-64, bestatin, leupeptin, and aprotinin). The soluble fraction was obtained by centrifugation at 1000×g and 5 μl of each sample, containing the same amount of protein, was spotted in a PVDF membrane. Membrane was air dried for 4 h and blocked overnight at 4° C. in 5% nonfat dry milk TBST (10 mM Tris-HCl, pH 7.8, 100 mM NaCl, 0.05% Tween 20) solution. Protein spots were detected using the primary antibody, rabbit anti-A11 oligomer (0.5 μg/ml) from Invitrogen, and secondary antibody conjugated to […] peroxidase (anti-rabbit) followed by ECL detection.\nThe levels of protein carbonyl were measured in protein extracts from the SN tissues, using the OxiSelect Protein Carbonyl Immunoblot Kit (Cell Biolabs), according to the manufacturer's instructions, with small modifications. […]",
  "data": [
    {"molecule": "C[n+]1ccc(-c2cc[n+](C)cc2)cc1", "note": "[PQ, paraquat]", "values": [
      {"measurement": "increase in protein carbonyl levels after PQ exposure", "setting": "ipsilateral SN", "value": 95, "unit": "%"},
      {"measurement": "increase in ubiquitin protein levels, vector+PQ vs vector+vehicle", "setting": "ipsilateral SN", "value": 43, "unit": "%"},
      {"measurement": "increase in α-synuclein protein levels, vector+PQ vs vector+vehicle", "setting": "ipsilateral SN, Western blot", "value": 54, "unit": "%"},
      {"measurement": "increase in A11-positive oligomers, vector+PQ vs vector+vehicle", "setting": "ipsilateral SN, dot blot", "value": 68, "unit": "%"},
      {"measurement": "TH protein levels compared with vector+vehicle", "setting": "ipsilateral SN, vector+PQ group, or Nox1 knocked down before PQ", "value": 65, "unit": "%"},
      {"measurement": "Nox1 protein level in the SN, higher than vehicle group", "setting": "rats, PQ 10 mg/kg i.p. x4", "value": 58, "unit": "%"},
      {"measurement": "increase in α-synuclein protein levels in the SN (Western blot)", "setting": "rats, PQ 10 mg/kg i.p. x4, vs vehicle", "value": 50, "unit": "%"},
      {"measurement": "Nox1 protein, higher than vector+vehicle", "setting": "vector+PQ group, ipsilateral SN", "value": 70, "unit": "%"}
    ]}
  ]
}
